According to patent publication US7166688B1, “Chelation compositions” (LidoChem, Inc., priority 2000, dated 2007):

What was measured:
[1] = Copper chelation, clear solution / precipitate test; format: physicochemical
Experimental: A five percent chelated copper solution was prepared by blending 19 grams of basic copper sulfate in 100 ml of water. Concentrated HCl was added to solubilize the copper. Once in solution, 71 grams of the compound produced in Example 10 was added. […] This chelated copper solution is suitable for blending with phosphorus fertilizers.
In 250 ml of water 1 gram of copper sulfate was added and mechanically stirred. To this solution, 10 ml of the diethanolsuccinamide-amino ethanol solution produced in Example 17 was added. The pH of the blend was adjusted to 8.4 and 1 gram of potassium phosphate was added the mixture.
In another flask, 1 gram of copper sulfate was added to 250 ml of water and mechanically blended. Then, 1 gram of potassium phosphate was added to the blend. The pH of the solution was adjusted with potassium hydroxide. Immediately a powder solid was formed and precipitated. The hydroxide and phosphate salts of copper were formed.
(§1) In 400 ml of water, 1 gram of copper sulfate was added and 10 ml of the product from example 28 were added. With mechanical stirring, 20 grams of monopotassium phosphate were added to the mix. The pH of the solution was then adjusted to 2 with HCl. The pH of the solution was then gradually raised with the addition of Monoethanolamine to a pH of 9.
Two grams of basic copper sulfate were added to 200 ml of water. […]

[2] = Iron chelation, clear solution / precipitate test; format: physicochemical
Experimental: A five percent chelated iron solution was prepared by blending 18 ml of water with 100 grams of a (10% Fe) ferric nitrate solution. Once in solution, 82 grams of the compound produced in Example 10 was added.
In 25 ml of water, 20 ml of a 1.8M ferric nitrate was added. Once in solution, 30 ml of the diethanolsuccinamide amino ethanol solution produced in Example 17 was added and the pH of the blend was adjusted to 9.2. Then 1 gram of potassium phosphate was added to the mixture.
Five drops of 1.8 M ferric nitrate were added to one liter of water and mechanically blended. Then 10 grams of potassium phosphate were added to the solution and allowed to form insoluble potassium salts.
In 400 ml of water, 20 ml of a 10% ferric nitrate solution were added, and 20 ml of the product from example 25 were added. With mechanical stirring, 40 grams of monopotassium phosphate was added the mix. The pH of the solution was then adjusted to 2 with HCl. The pH of the solution was then gradually raised with the addition of base to a pH of 10.
In 400 ml of water, 10 ml of 1.8 M ferric nitrate solution were added and 20 ml of the product from example 28 were added. With mechanical stirring, 20 grams of monopotassium phosphate was added to the mix. The pH of the solution was then adjusted to 2 with HCL. The pH of the solution was then gradually raised with the addition of Monoethanolamine to a pH of 10.
To a beaker containing one liter of water, 20 grams of potassium phosphate were added to form a clear solution.
Thirty grams of 1.8 M ferric nitrate were added to 100 ml of water. The pH of the solution was lowered to 4 with phosphorous acid, and then 5 grams of Potassium phosphate were then added to the blend. Later 30 ml of the solution produced in example 29 was added.
One hundred ml of the solution prepared in Example 41 was added to 500 ml of water and blended. 10 ml of 1.8-M ferric nitrate was then added to the mixture. […] The potassium salt of maleic acid was tested as a chelating agent.
In a separate flask 20 grams of maleic anhydride were blended in 500 ml of water. Potassium hydroxide was then added to the blend to raise the pH to 10. Later ten ml of 1.8M ferric nitrate was added to the mix and 10 grams of potassium phosphate was also blended in. […] The contents of the flask were then blended again while MEA was added to the mix.

[3] = Zinc chelation, clear solution / precipitate test; format: physicochemical
Experimental: In 25 ml of water 1 gram of zinc sulfate was added. Once the zinc sulfate was in solution, 30 ml of the N,N-diethanolsuccinamide amino ethanol solution produced in Example 17 was added and the pH of the blend was adjusted to 9.5. Then 1 gram of potassium phosphate was added tho the mixture.
In a separate flask 25 ml of water, 1 gram of zinc sulfate and 1 gram of potassium phosphate were blended together. Immediately a white precipitate formed.
as §1, with “20 ml” for “1 gram”, “a 17% zinc nitrate solution were” for “copper sulfate was”, “60” for “10”, “40” for “20”
A nine percent chelated zinc solution was prepared by blending 50 ml of water with 22.4 grams zinc oxide. Concentrated HCl was added until the solution was clear. Once in solution, 125 grams of the compound produced in Example 10 was added. […] This chelated zinc solution is suitable for blending with phosphorus fertilizers 2-ethanolaminesuccinic-N-ethanolsuccinicamide (tri potassium salt) has the following formula: […]
Ten ml of 17% zinc solution were added to a liter of water. Later 20 grams of potassium phosphate were added and dissolved. Zinc phosphate formed a precipitate. Phosphorous acid was then added to lower the pH and clear the solution. Once clear 30 ml of the solution prepared in example 35 was added. This acidic solution, which was acidic, then remained undisturbed for a day, after which the pH was adjusted to 10 with the addition of MEA.

[4] = Manganese chelation, clear solution / precipitate test; format: physicochemical
Experimental: In 25 ml of water 10 ml of a manganese nitrate solution was added. Once the manganese nitrate was in solution, 30 ml of the N,N-diethanolsuccinamide amino ethanol solution produced in Example 17 was added to the mixture and the pH of the blend was adjusted to 6. Then 1 gram of potassium phosphate was added to the mixture.
A five percent chelated manganese solution was prepared by blending 18 ml of water with 58 grams of a (17% Mn) manganese nitrate solution. Once the manganese nitrate was in solution, 82 grams of the compound produced in Example 10 was added. […] This chelated manganese solution is suitable for blending with phosphorus fertilizers.

[5] = Calcium chelation, clear solution / precipitate test; format: physicochemical
Experimental: In a preliminary study, 2 grams of calcium chloride dihydrate were added to 200 ml of water and mechanically stirred. Then 20 ml of the diethanolsuccinamide amino ethanol solution produced in example 17 was added to the blend.
In another flask 2 grams of calcium chloride dihydrate were added to 200 ml of water and the pH was adjusted to 9. Almost immediately calcium hydroxide began to precipitate.

Corn [6] = test: Foliar applied IDS chelated minerals, tissue analysis, corn; format: in vivo
Experimental: (§2) An experimental trial was completed testing the efficacy of the Iminodisuccinates (IDS) of this invention on five different crops. Below is the protocol and tissue analysis for both soil and foliar applied iminodisuccinate chelated mineral salts.
(§3) A stock solution for foliar application was prepared by blending 6000 ml of water with T-DAT 09, (Harcross Chemical Company, USA) a surfactant, added to spray mix at 2 drops per liter. • 1). 5 ml of 9% zinc was added to 1 liter of stock solution. • 2). 5 ml of 5% copper was added to 1 liter of stock solution. • 3). 5 ml of 5% manganese was added to 1 liter of stock solution. • 4). 5 ml of 5% Iron was added to 1 liter of stock solution. • 5). 4 ml of 9% zinc, 1 ml of 5% copper, 1 ml of 5% manganese, and 1 ml of 5% iron was added to 1 liter of stock solution. • 6). Stock solution without further addition.
(§4) All plants were sprayed until wet. Harvested material was placed in an oven for one day and sent to the lab for tissue analysis. Harvesting occurred thirty days after planting and some plants had not grown enough to get complete lab results reported. The harvested corn plants were cut at the whirl to insure only new leaves would be tested. The soybeans were clipped above the cotyledon. The alfalfa and clover were removed from the soil and the roots were removed. The wheat was cut at the tillering node.

Wheat [7] = test: Foliar applied IDS chelated minerals, tissue analysis, wheat; format: in vivo
Experimental: as §2, §3, §4

Clover [8] = test: Foliar applied IDS chelated minerals, tissue analysis, clover; format: in vivo
Experimental: as §2, §3, §4

Soybean [9] = test: Foliar applied IDS chelated minerals, tissue analysis, soybeans; format: in vivo
Experimental: as §2, §3, §4

Clover [10] = test: Soil applied IDS chelated minerals with 10-34-0, tissue analysis, clover; format: in vivo
Experimental: as §2
(§5) A). The control pots were watered without any further treatments.
(§6) B). An ammonium polyphosphate stock solution was prepared by adding 50 ml of the 10-34-0 to 4000 ml of water. Treated plants received 100 ml of the stock solution.
(§7) (C). The Zinc stock solution was prepared by blending 10 ml of IDS chelated 9% Zinc to a blend of 50 ml of 10-34-0 with 4000 ml of water. Treated plants received 100 ml of the zinc stock solution.
(§8) (D). The mixture of IDS chelated micronutrients was prepared by adding 4 ml of 9% Zinc, 1 ml of 5% Copper, 1 ml of 5% manganese, and 1 ml of 5% Iron. This mixture was then blended with 4000 ml of water and 50 ml of 10-34-0.
as §4

Wheat [11] = test: Soil applied IDS chelated minerals with 10-34-0, tissue analysis, wheat; format: in vivo
Experimental: as §2, §5, §6, §7, §8, §4

Corn [12] = test: Soil applied IDS chelated minerals with 10-34-0, tissue analysis, corn; format: in vivo
Experimental: as §2, §5, §6, §7, §8, §4

Soybean [13] = test: Soil applied IDS chelated minerals with 10-34-0, tissue analysis, soybeans; format: in vivo
Experimental: as §2, §5, §6, §7, §8, §4

Compound: O=C(CC(C(=O)[O-])N(CCO)C(CC(=O)NCCO)C(=O)[O-])NCCO.[K+].[K+] (stereo not shown) [Example 17, diethanolsuccinicamide-amino ethanol]
- appearance of blend / precipitates ([1]; 1 gram copper sulfate in 250 ml water, 10 ml solution, pH 8.4, 1 gram potassium phosphate): clear, dark blue and free of precipitates
- appearance of blend / precipitates ([2]; 20 ml 1.8M ferric nitrate in 25 ml water, 30 ml solution, pH 9.2, 1 gram potassium phosphate): clear, dark ruby red and free of precipitates
- appearance of blend / precipitates ([3]; 1 gram zinc sulfate in 25 ml water, 30 ml solution, pH 9.5, 1 gram potassium phosphate): clear, yellow, and free of precipitates
- appearance of blend / precipitates ([4]; 10 ml manganese nitrate solution in 25 ml water, 30 ml solution, pH 6, 1 gram potassium phosphate): clear, amber in color, and free of precipitates
- appearance of solution / precipitates ([5]; 2 grams calcium chloride dihydrate in 200 ml water, 20 ml solution, pH 9): a clear solution free of precipitates
- calcium phosphate precipitate formation ([5]; same solution lowered to a pH of 5.5, phosphate salts added): without calcium phosphate precipitate formation

Compound: ZINC
- zinc in plant tissue, TREATED (Corn [6]; harvested 30 days after planting, control 15.6): 792 parts per million
- zinc in plant tissue, CHANGE (Corn [6]; treated minus control 15.6): 776.4 parts per million
- zinc in plant tissue, % change (Corn [6]; versus control 15.6): 4977%
- zinc in plant tissue, TREATED (Wheat [7]; harvested 30 days after planting, control 44.3): 563 parts per million
- zinc in plant tissue, CHANGE (Wheat [7]; treated minus control 44.3): 518.7 parts per million
- zinc in plant tissue, TREATED (Clover [8]; harvested 30 days after planting, control 56.7): 1264 parts per million
- zinc in plant tissue, CHANGE (Clover [8]; treated minus control 56.7): 1207.3 parts per million
- zinc in plant tissue, TREATED (Soybean [9]; harvested 30 days after planting, control 63.8): 1000 parts per million
- zinc in plant tissue, CHANGE (Soybean [9]; treated minus control 63.8): 936.2 parts per million
- zinc in plant tissue, % change (Soybean [9]; versus control 63.8): 1467%
- zinc in plant tissue, TREATED (Clover [10]; soil applied with 10-34-0, harvested 30 days after planting, control 53.4): 231
- zinc in plant tissue, CHANGE (Clover [10]; soil applied, treated minus control 53.4): 177.6
- zinc in plant tissue, % change (Clover [10]; soil applied, versus control 53.4): 333%
- zinc in plant tissue, TREATED (Wheat [11]; soil applied with 10-34-0, harvested 30 days after planting, control 39): 93.1
- zinc in plant tissue, CHANGE (Wheat [11]; soil applied, treated minus control 39): 54.1
- zinc in plant tissue, % change (Wheat [11]; soil applied, versus control 39): 139%
- zinc in plant tissue, TREATED (Corn [12]; soil applied with 10-34-0, harvested 30 days after planting, control 24): 69.6
- zinc in plant tissue, CHANGE (Corn [12]; soil applied, treated minus control 24): 45.6
- zinc in plant tissue, % (Corn [12]; soil applied, versus control 24): 190%
- zinc in plant tissue, TREATED (Soybean [13]; soil applied with 10-34-0, harvested 30 days after planting, control 19.4): 136
- zinc in plant tissue, CHANGE (Soybean [13]; soil applied, treated minus control 19.4): 116.6
- zinc in plant tissue, % (Soybean [13]; soil applied, versus control 19.4): 601%

Compound: 2-ethanolaminesuccinic-N-ethanolsuccinicamide [Example 10]
- appearance of finished solution / precipitates ([1]; five percent chelated copper solution: 19 grams basic copper sulfate in 100 ml water, HCl, 71 grams compound, pH of 5): free of precipitates
- appearance of finished solution / precipitates ([2]; five percent chelated iron solution: 18 ml water, 100 grams (10% Fe) ferric nitrate solution, 82 grams compound, pH of 5): clear and free of precipitates
- appearance of finished solution / precipitates ([3]; nine percent chelated zinc solution: 22.4 grams zinc oxide in 50 ml water, HCl, 125 grams compound, pH of 5): clear and free of precipitates
- appearance of finished solution / precipitates ([4]; five percent chelated manganese solution: 18 ml water, 58 grams (17% Mn) manganese nitrate solution, 82 grams compound, pH of 5): clear and free of precipitates

Compound: O=C([O-])CC(C(=O)[O-])N(CCO)C(CC(=O)[O-])C(=O)[O-].[K+].[K+].[K+].[K+] (stereo not shown) [Example 35, N,N-disuccinic-amino-ethanol tetra potassium salt]
- redissolution of precipitated ferric phosphate ([2]; 20 grams potassium phosphate and 10 grams 1.8 M ferric solution in one liter water, 2.4 grams of the 0.75 M solution added): a clear yellow solution was produced inmediately
- appearance of solution / precipitates ([3]; 10 ml 17% zinc solution and 20 grams potassium phosphate in a liter of water, phosphorous acid, 30 ml solution, after a day pH 10 with MEA): remained clear, free of precipitates, and colorless
